Measurements taken from the kinase profiling compilation of Christmann-Franck et al. (2016).

Experiments:
Experiment in all cases: KINOMEscan competition binding
Conditions in all cases: compound 10.0 µM
ABL1 (human) = ABL1 (human) (UniProt P00519)
BMPR1B (human) = BMPR1B (human) (UniProt O00238)
CASK (human) = CASK (human) (UniProt O14936)
CDK19 (human) = CDK19 (human) (UniProt Q9BWU1)
CDKL1 (human) = CDKL1 (human) (UniProt Q00532)
CLK3 (human) = CLK3 (human) (UniProt P49761)
CaMK1 (human) = CaMK1 (human) (UniProt Q14012)
[1] = tested on: EGFR (human), P00533 [T790M]
EPHA1 (human) = EPHA1 (human) (UniProt P21709)
FRK (human) = FRK (human) (UniProt P42685)
[2] = target: JAK2 JH1 catalytic (human) (UniProt O60674)
LATS2 (human) = LATS2 (human) (UniProt Q9NRM7)
MAP2K4 (human) = MAP2K4 (human) (UniProt P45985)
MAP2K7 (human) = MAP2K7 (human) (UniProt O14733)
MARK4 (human) = MARK4 (human) (UniProt Q96L34)
MELK (human) = MELK (human) (UniProt Q14680)
MST4 (human) = MST4 (human) (UniProt Q9P289)
PAK3 (human) = PAK3 (human) (UniProt O75914)
PAK6 (human) = PAK6 (human) (UniProt Q9NQU5)
PIK3CG (human) = PIK3CG (human) (UniProt P48736)
PIP4K2B (human) = PIP4K2B (human) (UniProt P78356)
PKMYT1 (human) = PKMYT1 (human) (UniProt Q99640)
PRKD3 (human) = PRKD3 (human) (UniProt O94806)
PTK6 (human) = PTK6 (human) (UniProt Q13882)
RIPK4 (human) = RIPK4 (human) (UniProt P57078)
ROCK1 (human) = ROCK1 (human) (UniProt Q13464)
ROCK2 (human) = ROCK2 (human) (UniProt O75116)
RPS6KA2 KD2 (human) = RPS6KA2 KD2 (human) (UniProt Q15349)
RPS6KA5 KD2 (human) = RPS6KA5 KD2 (human) (UniProt O75582)
SRPK2 (human) = SRPK2 (human) (UniProt P78362)
STK32B (human) = STK32B (human) (UniProt Q9NY57)
TAOK3 (human) = TAOK3 (human) (UniProt Q9H2K8)
BLK (human) = BLK (human) (UniProt P51451)
BUB1 (human) = BUB1 (human) (UniProt O43683)
GSG2 (human) = GSG2 (human) (UniProt Q8TF76)
IKBKB (human) = IKBKB (human) (UniProt O14920)
LIMK2 (human) = LIMK2 (human) (UniProt P53671)
SGK1 (human) = SGK1 (human) (UniProt O00141)
WNK3 (human) = WNK3 (human) (UniProt Q9BYP7)

PKMYT1 (human), sequence (Q99640 whole entry, looked up): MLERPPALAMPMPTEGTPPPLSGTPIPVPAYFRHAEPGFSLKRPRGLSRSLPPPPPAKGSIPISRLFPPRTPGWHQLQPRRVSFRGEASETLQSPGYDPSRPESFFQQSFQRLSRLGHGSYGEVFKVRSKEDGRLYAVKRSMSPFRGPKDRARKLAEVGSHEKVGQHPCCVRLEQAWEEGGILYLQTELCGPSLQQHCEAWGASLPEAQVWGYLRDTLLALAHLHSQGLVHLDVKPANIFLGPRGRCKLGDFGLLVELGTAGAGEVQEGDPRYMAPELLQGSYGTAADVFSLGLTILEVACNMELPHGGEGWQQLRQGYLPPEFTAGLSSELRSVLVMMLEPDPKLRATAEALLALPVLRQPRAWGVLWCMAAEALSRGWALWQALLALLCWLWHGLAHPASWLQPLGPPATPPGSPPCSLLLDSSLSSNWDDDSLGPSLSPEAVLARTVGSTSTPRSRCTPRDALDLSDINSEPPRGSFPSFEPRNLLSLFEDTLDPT
CaMK1 (human), sequence (Q14012 whole entry, looked up): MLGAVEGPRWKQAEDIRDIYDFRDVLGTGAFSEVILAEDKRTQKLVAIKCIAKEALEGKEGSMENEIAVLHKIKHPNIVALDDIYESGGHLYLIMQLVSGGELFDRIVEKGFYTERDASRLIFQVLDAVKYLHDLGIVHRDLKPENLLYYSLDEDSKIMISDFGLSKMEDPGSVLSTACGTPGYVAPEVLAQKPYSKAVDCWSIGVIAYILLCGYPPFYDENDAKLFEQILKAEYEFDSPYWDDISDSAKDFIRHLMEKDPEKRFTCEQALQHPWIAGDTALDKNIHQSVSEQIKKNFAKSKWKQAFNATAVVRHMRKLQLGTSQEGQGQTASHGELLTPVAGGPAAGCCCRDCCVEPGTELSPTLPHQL
CDKL1 (human), sequence (Q00532 whole entry, looked up): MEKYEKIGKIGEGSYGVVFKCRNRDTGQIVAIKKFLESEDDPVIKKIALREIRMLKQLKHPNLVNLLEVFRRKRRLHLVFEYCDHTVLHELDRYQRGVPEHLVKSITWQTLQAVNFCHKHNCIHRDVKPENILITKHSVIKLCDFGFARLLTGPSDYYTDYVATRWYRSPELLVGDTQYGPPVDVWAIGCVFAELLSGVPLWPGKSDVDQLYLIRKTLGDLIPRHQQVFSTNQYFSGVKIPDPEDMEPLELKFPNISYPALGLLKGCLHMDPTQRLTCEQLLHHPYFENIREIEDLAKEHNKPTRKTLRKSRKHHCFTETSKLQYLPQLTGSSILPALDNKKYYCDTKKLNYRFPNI
ROCK2 (human), sequence (O75116 whole entry, looked up): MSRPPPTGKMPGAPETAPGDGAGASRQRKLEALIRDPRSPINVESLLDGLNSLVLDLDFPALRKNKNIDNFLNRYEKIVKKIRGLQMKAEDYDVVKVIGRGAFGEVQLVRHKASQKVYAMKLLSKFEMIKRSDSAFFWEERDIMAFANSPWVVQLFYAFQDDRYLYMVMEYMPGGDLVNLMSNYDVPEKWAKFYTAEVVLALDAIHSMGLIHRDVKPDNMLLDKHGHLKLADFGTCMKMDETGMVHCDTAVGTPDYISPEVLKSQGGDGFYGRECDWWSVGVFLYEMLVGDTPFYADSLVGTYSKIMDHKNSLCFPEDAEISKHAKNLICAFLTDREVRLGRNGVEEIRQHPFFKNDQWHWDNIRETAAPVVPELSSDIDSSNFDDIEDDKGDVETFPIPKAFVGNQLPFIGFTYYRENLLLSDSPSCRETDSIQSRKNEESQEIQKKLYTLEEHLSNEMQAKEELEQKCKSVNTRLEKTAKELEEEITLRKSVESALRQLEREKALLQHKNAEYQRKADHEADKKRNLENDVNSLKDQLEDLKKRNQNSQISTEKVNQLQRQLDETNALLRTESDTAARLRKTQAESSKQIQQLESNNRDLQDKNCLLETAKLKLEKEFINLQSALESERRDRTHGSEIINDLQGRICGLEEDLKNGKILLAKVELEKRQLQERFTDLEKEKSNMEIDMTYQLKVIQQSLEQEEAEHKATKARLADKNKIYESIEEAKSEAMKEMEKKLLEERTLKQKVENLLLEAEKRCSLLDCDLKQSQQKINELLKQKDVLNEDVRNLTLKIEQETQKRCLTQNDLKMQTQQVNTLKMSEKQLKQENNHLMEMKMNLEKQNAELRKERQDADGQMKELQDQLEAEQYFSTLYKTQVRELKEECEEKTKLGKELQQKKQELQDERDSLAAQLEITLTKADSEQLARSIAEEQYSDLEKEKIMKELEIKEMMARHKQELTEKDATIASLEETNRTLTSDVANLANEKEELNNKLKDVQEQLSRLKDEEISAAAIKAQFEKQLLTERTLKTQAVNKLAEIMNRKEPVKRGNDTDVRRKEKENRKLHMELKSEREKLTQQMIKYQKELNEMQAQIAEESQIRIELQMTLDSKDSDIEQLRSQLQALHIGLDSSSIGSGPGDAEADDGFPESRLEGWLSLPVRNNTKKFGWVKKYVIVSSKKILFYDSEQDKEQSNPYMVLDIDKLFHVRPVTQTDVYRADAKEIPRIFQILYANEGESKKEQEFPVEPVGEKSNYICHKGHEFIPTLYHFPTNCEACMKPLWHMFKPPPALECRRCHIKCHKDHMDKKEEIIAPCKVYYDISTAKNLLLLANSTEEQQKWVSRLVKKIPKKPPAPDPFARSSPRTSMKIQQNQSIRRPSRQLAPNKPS
JAK2 JH1 catalytic (human), sequence (O60674 whole entry, looked up): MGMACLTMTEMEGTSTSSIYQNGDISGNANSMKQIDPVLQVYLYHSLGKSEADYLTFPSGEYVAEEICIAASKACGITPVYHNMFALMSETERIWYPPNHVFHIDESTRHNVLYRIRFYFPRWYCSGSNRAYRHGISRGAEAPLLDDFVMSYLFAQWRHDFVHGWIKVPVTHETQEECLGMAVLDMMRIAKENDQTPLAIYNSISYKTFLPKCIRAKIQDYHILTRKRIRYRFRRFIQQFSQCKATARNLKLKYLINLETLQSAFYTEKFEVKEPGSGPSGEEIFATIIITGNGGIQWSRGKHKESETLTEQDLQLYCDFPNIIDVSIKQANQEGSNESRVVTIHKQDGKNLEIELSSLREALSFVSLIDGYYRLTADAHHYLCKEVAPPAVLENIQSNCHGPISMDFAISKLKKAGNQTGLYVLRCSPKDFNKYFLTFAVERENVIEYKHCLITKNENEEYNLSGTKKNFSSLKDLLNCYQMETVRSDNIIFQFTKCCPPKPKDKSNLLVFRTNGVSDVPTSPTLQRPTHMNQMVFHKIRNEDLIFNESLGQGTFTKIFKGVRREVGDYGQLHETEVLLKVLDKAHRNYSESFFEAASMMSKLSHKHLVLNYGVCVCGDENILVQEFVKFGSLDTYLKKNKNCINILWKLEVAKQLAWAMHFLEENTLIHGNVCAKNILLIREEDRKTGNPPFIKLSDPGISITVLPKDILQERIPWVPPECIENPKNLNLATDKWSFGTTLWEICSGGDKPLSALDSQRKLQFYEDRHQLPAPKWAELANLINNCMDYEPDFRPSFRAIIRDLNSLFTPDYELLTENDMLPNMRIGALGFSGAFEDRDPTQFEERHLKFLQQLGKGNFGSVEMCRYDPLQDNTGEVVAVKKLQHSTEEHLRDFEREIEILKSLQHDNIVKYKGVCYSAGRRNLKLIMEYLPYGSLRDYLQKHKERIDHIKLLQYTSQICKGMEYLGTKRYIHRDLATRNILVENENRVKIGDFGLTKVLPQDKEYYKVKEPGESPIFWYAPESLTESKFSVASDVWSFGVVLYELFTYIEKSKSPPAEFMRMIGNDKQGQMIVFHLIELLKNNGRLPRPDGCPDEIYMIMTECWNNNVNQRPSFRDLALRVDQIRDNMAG
TAOK3 (human), sequence (Q9H2K8 whole entry, looked up): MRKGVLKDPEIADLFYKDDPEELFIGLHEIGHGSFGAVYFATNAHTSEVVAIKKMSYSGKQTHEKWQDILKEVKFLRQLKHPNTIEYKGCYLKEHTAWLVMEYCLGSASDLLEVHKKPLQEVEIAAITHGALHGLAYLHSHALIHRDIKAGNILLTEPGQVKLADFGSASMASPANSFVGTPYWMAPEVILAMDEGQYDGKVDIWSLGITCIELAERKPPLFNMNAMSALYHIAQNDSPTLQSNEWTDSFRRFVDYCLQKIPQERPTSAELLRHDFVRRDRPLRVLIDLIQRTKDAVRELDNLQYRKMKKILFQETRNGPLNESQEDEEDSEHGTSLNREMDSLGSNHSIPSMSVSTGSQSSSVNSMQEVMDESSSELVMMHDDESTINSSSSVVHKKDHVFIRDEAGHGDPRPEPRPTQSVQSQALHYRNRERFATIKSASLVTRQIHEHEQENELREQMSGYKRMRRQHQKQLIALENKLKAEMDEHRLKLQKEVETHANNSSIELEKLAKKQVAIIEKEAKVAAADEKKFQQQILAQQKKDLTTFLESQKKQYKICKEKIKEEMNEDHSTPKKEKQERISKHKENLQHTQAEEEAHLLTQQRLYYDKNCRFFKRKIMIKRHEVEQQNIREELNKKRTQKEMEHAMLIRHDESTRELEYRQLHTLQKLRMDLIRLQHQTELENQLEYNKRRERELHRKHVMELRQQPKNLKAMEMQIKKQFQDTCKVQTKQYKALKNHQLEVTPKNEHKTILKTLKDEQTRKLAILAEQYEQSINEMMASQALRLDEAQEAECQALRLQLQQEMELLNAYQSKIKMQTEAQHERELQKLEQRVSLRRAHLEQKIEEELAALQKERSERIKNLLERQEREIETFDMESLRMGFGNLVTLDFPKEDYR
STK32B (human), sequence (Q9NY57 whole entry, looked up): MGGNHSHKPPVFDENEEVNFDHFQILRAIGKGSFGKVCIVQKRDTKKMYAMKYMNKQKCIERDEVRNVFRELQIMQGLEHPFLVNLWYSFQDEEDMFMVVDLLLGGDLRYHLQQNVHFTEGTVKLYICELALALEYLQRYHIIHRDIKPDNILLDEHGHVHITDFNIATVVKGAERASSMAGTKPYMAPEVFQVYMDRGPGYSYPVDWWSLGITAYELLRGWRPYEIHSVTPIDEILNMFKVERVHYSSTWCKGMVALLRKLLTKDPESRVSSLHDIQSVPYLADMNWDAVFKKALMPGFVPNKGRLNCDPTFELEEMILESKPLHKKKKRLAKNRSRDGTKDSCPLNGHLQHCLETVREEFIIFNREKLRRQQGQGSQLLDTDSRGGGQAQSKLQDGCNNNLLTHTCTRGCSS

Compound | kinase still bound, per cent of control (BMPR1B (human)) [%] | kinase still bound, per cent of control (CASK (human)) [%] | kinase still bound, per cent of control (CDK19 (human)) [%] | kinase still bound, per cent of control (CDKL1 (human)) [%] | kinase still bound, per cent of control (CLK3 (human)) [%] | kinase still bound, per cent of control (CaMK1 (human)) [%] | kinase still bound, per cent of control [1] [%] | kinase still bound, per cent of control (EPHA1 (human)) [%] | kinase still bound, per cent of control (FRK (human)) [%] | kinase still bound, per cent of control [2] [%] | kinase still bound, per cent of control (LATS2 (human)) [%] | kinase still bound, per cent of control (MAP2K4 (human)) [%] | kinase still bound, per cent of control (MAP2K7 (human)) [%] | kinase still bound, per cent of control (MARK4 (human)) [%] | kinase still bound, per cent of control (MELK (human)) [%] | kinase still bound, per cent of control (MST4 (human)) [%] | kinase still bound, per cent of control (PAK3 (human)) [%] | kinase still bound, per cent of control (PAK6 (human)) [%] | kinase still bound, per cent of control (PIK3CG (human)) [%] | kinase still bound, per cent of control (PIP4K2B (human)) [%] | further results
COc1cc2ncn(-c3cc(OCc4ccccc4C(F)(F)F)c(C(N)=O)s3)c2cc1OC | 64 | 93 | 100 | 72 | 83 | 100 | 100 | 84 | 82 | 48 | 50 | 100 | 87 | 99 | 61 | 85 | 77 | 94 | 18 | 6.6 | kinase still bound, per cent of control (ABL1 (human)): 60%; kinase still bound, per cent of control (PKMYT1 (human)): 60%; kinase still bound, per cent of control (PRKD3 (human)): 100%; kinase still bound, per cent of control (PTK6 (human)): 84%; kinase still bound, per cent of control (RIPK4 (human)): 100%; kinase still bound, per cent of control (ROCK1 (human)): 4.7%; kinase still bound, per cent of control (ROCK2 (human)): 100%; kinase still bound, per cent of control (RPS6KA2 KD2 (human)): 74%; kinase still bound, per cent of control (RPS6KA5 KD2 (human)): 76%; kinase still bound, per cent of control (SRPK2 (human)): 34%; kinase still bound, per cent of control (STK32B (human)): 100%; kinase still bound, per cent of control (TAOK3 (human)): 89%
O=C1NC(=O)/C(=C/c2ccc3nccc(-c4ccncc4)c3c2)S1 | 3.7 | 59 | 4.2 | 61 | 0.05 | 65 | 76 | 85 | 81 | 31 | 100 | 9.6 | 38 | 89 | 8.6 | 90 | 20 | 83 | 0 | 4 | kinase still bound, per cent of control (BLK (human)): 77%; kinase still bound, per cent of control (BUB1 (human)): 12%; kinase still bound, per cent of control (GSG2 (human)): 6.2%; kinase still bound, per cent of control (IKBKB (human)): 34%; kinase still bound, per cent of control (LIMK2 (human)): 100%; kinase still bound, per cent of control (PKMYT1 (human)): 78%; kinase still bound, per cent of control (PRKD3 (human)): 74%; kinase still bound, per cent of control (PTK6 (human)): 87%; kinase still bound, per cent of control (RIPK4 (human)): 56%; kinase still bound, per cent of control (ROCK1 (human)): 51%; kinase still bound, per cent of control (ROCK2 (human)): 53%; kinase still bound, per cent of control (RPS6KA2 KD2 (human)): 12%; kinase still bound, per cent of control (RPS6KA5 KD2 (human)): 4.6%; kinase still bound, per cent of control (SGK1 (human)): 43%; kinase still bound, per cent of control (SRPK2 (human)): 86%; kinase still bound, per cent of control (STK32B (human)): 100%; kinase still bound, per cent of control (TAOK3 (human)): 13%; kinase still bound, per cent of control (WNK3 (human)): 86%
